Assay results from patent US8940302B2, “Predicting response to a HER inhibitor” (Genentech, Inc., priority 2007, dated 2015).

Key:
[1] = tested on: platinum-resistant ovarian cancer, primary peritoneal carcinoma, or fallopian tube carcinoma; assay: Randomized trial of gemcitabine + pertuzumab vs gemcitabine + placebo, PFS and OS by qRT-PCR HER3 (Examples 1 and 4); assay type: in vivo, human
Source text: Patients who had progressed while receiving, or within 6 months of receiving, a platinum-based chemotherapy regimen were eligible for this study. Patients were randomized to receive either gemcitabine in combination with pertuzumab, or gemcitabine in combination with placebo. Patients treated herein included those who had not received a previous salvage regimen treatment for platinum-resistant disease prior to study entry, and those who had received one prior regimen for platinum-resistant disease. Gemcitabine was administered at 1000 mg/m^2 on days 1 and 8 of each 21 day cycle. Gemcitabine was infused first over 30 minutes. Dose reductions were permitted for toxicity. […] Subjects without progressive disease received treatment for up to 17 cycles, or 1 year. Patients had standard gemcitabine dose reduction and held doses as a result of cytopenias. […] Subsequent doses were at the reduced doses and were not increased. If dose reduction or holding a dose was required in more than 4 occasions, or if doses were held for more than 3 weeks, then gemcitabine was discontinued and with the approval of the treating physician and medical monitor, blinded drug was continued until disease progression. If Day 8 gemcitabine doses were held, then the Day 8 dose was omitted and the subsequent treatment was commenced with the next cycle (Day 22 of the previous cycle). Response was assessed at the end of Cycles 2, 4, 6, 8, 12 and 17. Measurable disease was assessed using the Response Evaluation Criteria for Solid Tumors (RECIST), by clinical evaluation and CT scan or equivalent. Response for subjects with evaluable disease was assessed according to changes to CA-125 and clinical and radiologic evidence of disease. Responses were confirmed 4-8 weeks after the initial documentation of response. The following outcome measures were assessed. Progression free survival, as determined by investigator assessment using RECIST or CA-125 changes, following initiation of assigned study treatment of all subjects in each arm. Formalin-fixed, paraffin embedded tissue (FFPET) samples obtained from the patients in this clinical trial were analyzed for EGFR, HER2, HER3, two HER ligands (amphiregulin and betacellulin), and G6PDH (a housekeeping gene) by qRT-PCR. The qRT-PCR assay was performed by TARGOS Molecular Pathology GmbH (Kassel, Germany) using Roche Diagnostic's lab lot kits. The workflow and analysis for performing the qRT-PCR assay on the clinical samples are depicted in FIGS. 27 and 28 herein. The efficacy results were assessed at 7.1 months median follow-up (range 1.3-20.3). There were 101 progression free survival (PFS) events at that time. […] P-values were estimated using stratified Cox model and stratified log-rank test by randomization stratification factors (ECOG PS, number of prior regimens for platinum resistant disease, and disease measurability). Patients with CDDP-R EOC were randomized to G+P or G+placebo. Treatment was given until progression or until unacceptable toxicity. The primary endpoint was PFS. A secondary objective was to evaluate efficacy outcomes in patients with HER2 activation-related expression profiles. A qRT-PCR assay using archival formalin-fixed paraffin-embedded tissue (FFPET), preformed as described above, allowed mRNA expression analysis of HER pathway genes, including HER1, HER2, HER3, amphiregulin, and betacellulin. Outcomes were described by low gene expression (<median) and by high gene expression (≧median).

[2] = in vivo; cited from earlier work
[3] = tested on: incurable, locally advanced, recurrent or metastatic solid tumors; settings: cited from earlier work
[4] = tested on: platinum-sensitive recurrent ovarian cancer; assay: Randomized open-label Phase II study of pertuzumab with carboplatin-based standard chemotherapy (Example 3); assay type: in vivo, human; settings: FIGS. 32-35
Source text: In this randomized, open-label Phase II clinical study, the efficacy and safety of pertuzumab treatment in combination with carboplatin-based standard chemotherapy was investigated in patients with platinum-sensitive recurrent ovarian cancer. The target sample size is 100-500 individuals. Target sample size is 148. Inclusion Criteria: • histologically confirmed ovarian, primary peritoneal, or fallopian tube cancer; • only 1 previous regimen, which must be platinum-based; • platinum-sensitive disease which is defined by a progression-free interval of greater than 6 months after completion of platinum-based chemotherapy. Exclusion Criteria: • previous radiotherapy; • previous treatment with an anti-cancer vaccine or any targeted therapy; • major surgery or traumatic injury within 4 weeks of study; • history or evidence of central nervous system metastases.

[5] = tested on: advanced, refractory, or recurrent ovarian cancer; assay: Single arm phase II trial of single agent pertuzumab, PFS and OS by HER3 qRT-PCR (Example 2); assay type: in vivo, human; settings: for median survival: single agent pertuzumab, FIG. 25
Procedure: This example concerns a single arm, open label, multicenter phase II clinical trial of ovarian cancer patients. […] Tumor assessments were obtained after 2, 4, 6, 8, 12 and 16 cycles. Response Rate (RR) by RECIST was the primary endpoint. Safety and tolerability were additionally evaluated. Secondary endpoints were TTP, duration of response, duration of survival, pharmacokinetics (PK), and FOSI (cohort 2). qRT-PCR assays were performed on archived formalin fixed paraffin embedded tissue. Assay data is available for 46/117 patients. Here high HER3 expressors were in the greater than and equal to 75th percentile, while low HER3 expressors were in the less than 75th percentile.

Compound: Cl.Nc1ccn([C@@H]2O[C@H](CO)[C@@H](O)C2(F)F)c(=O)n1 (single isomer, unassigned) [G + Placebo, 2′-deoxy-2′,2′-difluorocytidine monohydrochloride (b-isomer)]
- OS (median months) ([1]; All Patients (n = 130)): 13.1 months
- PFS (median months) ([1]; All Patients (n = 130)): 2.6 months
- OS (median months) ([1]; High HER3 (N = 61), ≧median): 18.2 months
- PFS (median months) ([1]; High HER3 (N = 61), ≧median): 5.5 months
- OS (median months) ([1]; Low HER3 (N = 61), <median): 8.4 months
- PFS (median months) ([1]; Low HER3 (N = 61), <median): 1.4 months

Compound: pertuzumab: humanized HER2 antibody, HER dimerization inhibitor, comprising light and heavy chain amino acid sequences in SEQ ID NOS. 13 and 14
- mean clearance [2]: 2.69 to 3.74 mL/day/kg
- mean terminal elimination half-life [2]: 15.3 to 27.6 days
- tolerability ([3]; in vivo, iv): generally well tolerated
- Tumor regression ([3]; patients evaluable for response, pertuzumab IV every 3 weeks): 3 of 20
- confirmed partial responses ([3]; pertuzumab IV every 3 weeks): Two
- pertuzumab activity (PFS) by HER2:HER3 expression [4]: greatest in patients with high HER2:HER3 expressing cancer
- pertuzumab activity (PFS) by HER3 expression [4]: greatest in patients with HER3 low expressing cancer
- median survival ([5]; high HER3 expressing patients (greater than and equal to 75th percentile)): 1.80 years
- median survival ([5]; low HER3 expressing patients (less than 75th percentile)): 3.31 years
- outcomes in terms of PFS and OS by HER3 expression ([5]; patients with low HER3 expression vs high): better outcomes in terms of PFS and OS
- pertuzumab activity (PFS) by HER3 expression ([1]; qRT-PCR HER3 cutoffs, FIGS. 14-15): greatest in patients with HER3 low expressing tumors
